In US7785828B1 (priority 2003, dated 2010):

Experiments:
Format in all cases: cell-based
Fusarium graminearum = system: Fusarium graminearum
Septoria tritici = system: Septoria tritici
Mycosphaerella fijiensis = system: Mycosphaerella fijiensis

“NLCERASKTWSGNCGNTKHCDTQCKNWEGAKHGACHKRSGKWMCFCYFNC (Defensin like) [L3-144]” was tested, and the “Antifungal activity, Fusarium graminearum (improvement compared to DmAMP1)” value (Fusarium graminearum) was “++ (key: + indicating 1- to 5-fold improvement compared to DmAMP1; ++ indicating >5- to 10-fold improvement; +++ indicating >10-fold improvement)”, the “Antifungal activity, Septoria tritici (improvement compared to DmAMP1)” value (Septoria tritici) was “+ (key: + indicating 1- to 5-fold improvement compared to DmAMP1; ++ indicating >5- to 10-fold improvement; +++ indicating >10-fold improvement)” and the “Antifungal activity, Mycosphaerella fijiensis (improvement compared to DmAMP1)” value (Mycosphaerella fijiensis) was “+ (key: + indicating 1- to 5-fold improvement compared to DmAMP1; ++ indicating >5- to 10-fold improvement; +++ indicating >10-fold improvement)”.

For “DGVKLCEKASQTWSGNCGNTKHCDTQCRNWEGAKHGACHKRNGKWKCFCYFNC (Defensin like) [L7-174]”, the “Antifungal activity, Fusarium graminearum (improvement compared to DmAMP1)” value (Fusarium graminearum) was “+++ (key: + indicating 1- to 5-fold improvement compared to DmAMP1; ++ indicating >5- to 10-fold improvement; +++ indicating >10-fold improvement)”, the “Antifungal activity, Septoria tritici (improvement compared to DmAMP1)” value (Septoria tritici) was “++ (key: + indicating 1- to 5-fold improvement compared to DmAMP1; ++ indicating >5- to 10-fold improvement; +++ indicating >10-fold improvement)” and the “Antifungal activity, Mycosphaerella fijiensis (improvement compared to DmAMP1)” value (Mycosphaerella fijiensis) was “+ (key: + indicating 1- to 5-fold improvement compared to DmAMP1; ++ indicating >5- to 10-fold improvement; +++ indicating >10-fold improvement)”.

For “NLCEKASKTWSGNCGNTKHCDTQCRNWEGAKHGACHKRNGKWKCFCYFNC (Defensin like) [L9-46]”, the “Antifungal activity, Fusarium graminearum (improvement compared to DmAMP1)” value (Fusarium graminearum) was “+++ (key: + indicating 1- to 5-fold improvement compared to DmAMP1; ++ indicating >5- to 10-fold improvement; +++ indicating >10-fold improvement)”, the “Antifungal activity, Septoria tritici (improvement compared to DmAMP1)” value (Septoria tritici) was “+++ (key: + indicating 1- to 5-fold improvement compared to DmAMP1; ++ indicating >5- to 10-fold improvement; +++ indicating >10-fold improvement)” and the “Antifungal activity, Mycosphaerella fijiensis (improvement compared to DmAMP1)” value (Mycosphaerella fijiensis) was “++ (key: + indicating 1- to 5-fold improvement compared to DmAMP1; ++ indicating >5- to 10-fold improvement; +++ indicating >10-fold improvement)”.

In the case of “NLCEKASKTWTGNCGNTKHCDNQCRNWEGAAHGACHKRNGKWKCFCYFNC (Defensin like) [L3-71]”, the “Antifungal activity, Fusarium graminearum (improvement compared to DmAMP1)” value (Fusarium graminearum) is reported as “+++ (key: + indicating 1- to 5-fold improvement compared to DmAMP1; ++ indicating >5- to 10-fold improvement; +++ indicating >10-fold improvement)”, the “Antifungal activity, Septoria tritici (improvement compared to DmAMP1)” value (Septoria tritici) is reported as “+++ (key: + indicating 1- to 5-fold improvement compared to DmAMP1; ++ indicating >5- to 10-fold improvement; +++ indicating >10-fold improvement)” and the “Antifungal activity, Mycosphaerella fijiensis (improvement compared to DmAMP1)” value (Mycosphaerella fijiensis) is reported as “+++ (key: + indicating 1- to 5-fold improvement compared to DmAMP1; ++ indicating >5- to 10-fold improvement; +++ indicating >10-fold improvement)”.

In the case of “NLCEKASKTWTGNCGNTKHCDTQCKSWEGAKHGACHKRNGKWKCFCYFNC (Defensin like) [L5-22]”, the “Antifungal activity, Fusarium graminearum (improvement compared to DmAMP1)” value (Fusarium graminearum) is reported as “++ (key: + indicating 1- to 5-fold improvement compared to DmAMP1; ++ indicating >5- to 10-fold improvement; +++ indicating >10-fold improvement)”, the “Antifungal activity, Septoria tritici (improvement compared to DmAMP1)” value (Septoria tritici) is reported as “++ (key: + indicating 1- to 5-fold improvement compared to DmAMP1; ++ indicating >5- to 10-fold improvement; +++ indicating >10-fold improvement)” and the “Antifungal activity, Mycosphaerella fijiensis (improvement compared to DmAMP1)” value (Mycosphaerella fijiensis) is reported as “+ (key: + indicating 1- to 5-fold improvement compared to DmAMP1; ++ indicating >5- to 10-fold improvement; +++ indicating >10-fold improvement)”.

For “NLCEKASKTWSGNCGNTKHCDTQCKSWEGAKHGACHVRNGKHKCFCYFNC (Defensin like) [L5-13]”, the “Antifungal activity, Fusarium graminearum (improvement compared to DmAMP1)” value (Fusarium graminearum) was “+++ (key: + indicating 1- to 5-fold improvement compared to DmAMP1; ++ indicating >5- to 10-fold improvement; +++ indicating >10-fold improvement)”, the “Antifungal activity, Septoria tritici (improvement compared to DmAMP1)” value (Septoria tritici) was “+++ (key: + indicating 1- to 5-fold improvement compared to DmAMP1; ++ indicating >5- to 10-fold improvement; +++ indicating >10-fold improvement)” and the “Antifungal activity, Mycosphaerella fijiensis (improvement compared to DmAMP1)” value (Mycosphaerella fijiensis) was “+ (key: + indicating 1- to 5-fold improvement compared to DmAMP1; ++ indicating >5- to 10-fold improvement; +++ indicating >10-fold improvement)”.

In the case of “DGVKLCERPSKTWSGHCGNTKHCDKQCRSWEGAAHGACHVRNGKWKCFCYFNC (Defensin like) [L7-94]”, the “Antifungal activity, Fusarium graminearum (improvement compared to DmAMP1)” value (Fusarium graminearum) is reported as “++ (key: + indicating 1- to 5-fold improvement compared to DmAMP1; ++ indicating >5- to 10-fold improvement; +++ indicating >10-fold improvement)”, the “Antifungal activity, Septoria tritici (improvement compared to DmAMP1)” value (Septoria tritici) is reported as “+ (key: + indicating 1- to 5-fold improvement compared to DmAMP1; ++ indicating >5- to 10-fold improvement; +++ indicating >10-fold improvement)” and the “Antifungal activity, Mycosphaerella fijiensis (improvement compared to DmAMP1)” value (Mycosphaerella fijiensis) is reported as “+ (key: + indicating 1- to 5-fold improvement compared to DmAMP1; ++ indicating >5- to 10-fold improvement; +++ indicating >10-fold improvement)”.

In the case of “NLCEKASKTWTGNCGNTKHCDTQCRNWEGAKHGACHKRNGKWKCFCYFNC (Defensin like) [L6-32]”, the “Antifungal activity, Fusarium graminearum (improvement compared to DmAMP1)” value (Fusarium graminearum) is reported as “+++ (key: + indicating 1- to 5-fold improvement compared to DmAMP1; ++ indicating >5- to 10-fold improvement; +++ indicating >10-fold improvement)”, the “Antifungal activity, Septoria tritici (improvement compared to DmAMP1)” value (Septoria tritici) is reported as “+++ (key: + indicating 1- to 5-fold improvement compared to DmAMP1; ++ indicating >5- to 10-fold improvement; +++ indicating >10-fold improvement)” and the “Antifungal activity, Mycosphaerella fijiensis (improvement compared to DmAMP1)” value (Mycosphaerella fijiensis) is reported as “+++ (key: + indicating 1- to 5-fold improvement compared to DmAMP1; ++ indicating >5- to 10-fold improvement; +++ indicating >10-fold improvement)”.

In the case of “NLCEKASKTWTGNCGNTKHCDTQCKSWEGAKHGACHVRSGKHKCFCYFNC (Defensin like) [L9-29]”, the “Antifungal activity, Fusarium graminearum (improvement compared to DmAMP1)” value (Fusarium graminearum) is reported as “+++ (key: + indicating 1- to 5-fold improvement compared to DmAMP1; ++ indicating >5- to 10-fold improvement; +++ indicating >10-fold improvement)”, the “Antifungal activity, Septoria tritici (improvement compared to DmAMP1)” value (Septoria tritici) is reported as “++ (key: + indicating 1- to 5-fold improvement compared to DmAMP1; ++ indicating >5- to 10-fold improvement; +++ indicating >10-fold improvement)” and the “Antifungal activity, Mycosphaerella fijiensis (improvement compared to DmAMP1)” value (Mycosphaerella fijiensis) is reported as “++ (key: + indicating 1- to 5-fold improvement compared to DmAMP1; ++ indicating >5- to 10-fold improvement; +++ indicating >10-fold improvement)”.

“NLCERASKTWSGNCGNTKHCDTQCRNWEGAKHGACHVRSGKHKCFCYFNC (Defensin like) [L9-27]” was tested, and the “Antifungal activity, Fusarium graminearum (improvement compared to DmAMP1)” value (Fusarium graminearum) was “++ (key: + indicating 1- to 5-fold improvement compared to DmAMP1; ++ indicating >5- to 10-fold improvement; +++ indicating >10-fold improvement)”, the “Antifungal activity, Septoria tritici (improvement compared to DmAMP1)” value (Septoria tritici) was “++ (key: + indicating 1- to 5-fold improvement compared to DmAMP1; ++ indicating >5- to 10-fold improvement; +++ indicating >10-fold improvement)” and the “Antifungal activity, Mycosphaerella fijiensis (improvement compared to DmAMP1)” value (Mycosphaerella fijiensis) was “++ (key: + indicating 1- to 5-fold improvement compared to DmAMP1; ++ indicating >5- to 10-fold improvement; +++ indicating >10-fold improvement)”.

In the case of “NLCERASKTWSGNCGNTKHCDTQCRSWEGAAHGACHKRSGKWKCFCYFNC (Defensin like) [L9-41]”, the “Antifungal activity, Fusarium graminearum (improvement compared to DmAMP1)” value (Fusarium graminearum) is reported as “++ (key: + indicating 1- to 5-fold improvement compared to DmAMP1; ++ indicating >5- to 10-fold improvement; +++ indicating >10-fold improvement)”, the “Antifungal activity, Septoria tritici (improvement compared to DmAMP1)” value (Septoria tritici) is reported as “+ (key: + indicating 1- to 5-fold improvement compared to DmAMP1; ++ indicating >5- to 10-fold improvement; +++ indicating >10-fold improvement)” and the “Antifungal activity, Mycosphaerella fijiensis (improvement compared to DmAMP1)” value (Mycosphaerella fijiensis) is reported as “+ (key: + indicating 1- to 5-fold improvement compared to DmAMP1; ++ indicating >5- to 10-fold improvement; +++ indicating >10-fold improvement)”.

In the case of “NLCERASKTWSGNCGNTKHCDTQCRSWEGAAHGACHKRNGKWKCFCYFNC (Defensin like) [L9-14]”, the “Antifungal activity, Fusarium graminearum (improvement compared to DmAMP1)” value (Fusarium graminearum) is reported as “++ (key: + indicating 1- to 5-fold improvement compared to DmAMP1; ++ indicating >5- to 10-fold improvement; +++ indicating >10-fold improvement)”, the “Antifungal activity, Septoria tritici (improvement compared to DmAMP1)” value (Septoria tritici) is reported as “+ (key: + indicating 1- to 5-fold improvement compared to DmAMP1; ++ indicating >5- to 10-fold improvement; +++ indicating >10-fold improvement)” and the “Antifungal activity, Mycosphaerella fijiensis (improvement compared to DmAMP1)” value (Mycosphaerella fijiensis) is reported as “+ (key: + indicating 1- to 5-fold improvement compared to DmAMP1; ++ indicating >5- to 10-fold improvement; +++ indicating >10-fold improvement)”.

For “NLCERASKTWTGNCGNTKHCDNQCRNWEGAAHGACHVRSGKHKCFCYFNC (Defensin like) [L6-85]”, the “Antifungal activity, Fusarium graminearum (improvement compared to DmAMP1)” value (Fusarium graminearum) was “+++ (key: + indicating 1- to 5-fold improvement compared to DmAMP1; ++ indicating >5- to 10-fold improvement; +++ indicating >10-fold improvement)”, the “Antifungal activity, Septoria tritici (improvement compared to DmAMP1)” value (Septoria tritici) was “+ (key: + indicating 1- to 5-fold improvement compared to DmAMP1; ++ indicating >5- to 10-fold improvement; +++ indicating >10-fold improvement)” and the “Antifungal activity, Mycosphaerella fijiensis (improvement compared to DmAMP1)” value (Mycosphaerella fijiensis) was “+ (key: + indicating 1- to 5-fold improvement compared to DmAMP1; ++ indicating >5- to 10-fold improvement; +++ indicating >10-fold improvement)”.

For “DGVKLCEKASQTWSGHCGNTKHCDNQCKNWEGAKHGACHKRNGKWKCFCYFNC [L7-350] (Defensin like)”, the “Antifungal activity, Fusarium graminearum (improvement compared to DmAMP1)” value (Fusarium graminearum) was “+ (key: + indicating 1- to 5-fold improvement compared to DmAMP1; ++ indicating >5- to 10-fold improvement; +++ indicating >10-fold improvement)”, the “Antifungal activity, Septoria tritici (improvement compared to DmAMP1)” value (Septoria tritici) was “+ (key: + indicating 1- to 5-fold improvement compared to DmAMP1; ++ indicating >5- to 10-fold improvement; +++ indicating >10-fold improvement)” and the “Antifungal activity, Mycosphaerella fijiensis (improvement compared to DmAMP1)” value (Mycosphaerella fijiensis) was “+ (key: + indicating 1- to 5-fold improvement compared to DmAMP1; ++ indicating >5- to 10-fold improvement; +++ indicating >10-fold improvement)”.

In the case of “NLCEKASKTWSGNCGNTGHCDTQCKNWEGAKHGACHVRNGKHKCFCYFNC (Defensin like) [L5-12]”, the “Antifungal activity, Fusarium graminearum (improvement compared to DmAMP1)” value (Fusarium graminearum) is reported as “++ (key: + indicating 1- to 5-fold improvement compared to DmAMP1; ++ indicating >5- to 10-fold improvement; +++ indicating >10-fold improvement)”, the “Antifungal activity, Septoria tritici (improvement compared to DmAMP1)” value (Septoria tritici) is reported as “++ (key: + indicating 1- to 5-fold improvement compared to DmAMP1; ++ indicating >5- to 10-fold improvement; +++ indicating >10-fold improvement)” and the “Antifungal activity, Mycosphaerella fijiensis (improvement compared to DmAMP1)” value (Mycosphaerella fijiensis) is reported as “+ (key: + indicating 1- to 5-fold improvement compared to DmAMP1; ++ indicating >5- to 10-fold improvement; +++ indicating >10-fold improvement)”.

In the case of “NLCERASKTWSGNCGNTKHCDTQCRNWEGAKHGACHKRSGKWKCFCYFNC (Defensin like) [L9-09]”, the “Antifungal activity, Fusarium graminearum (improvement compared to DmAMP1)” value (Fusarium graminearum) is reported as “+++ (key: + indicating 1- to 5-fold improvement compared to DmAMP1; ++ indicating >5- to 10-fold improvement; +++ indicating >10-fold improvement)”, the “Antifungal activity, Septoria tritici (improvement compared to DmAMP1)” value (Septoria tritici) is reported as “+ (key: + indicating 1- to 5-fold improvement compared to DmAMP1; ++ indicating >5- to 10-fold improvement; +++ indicating >10-fold improvement)” and the “Antifungal activity, Mycosphaerella fijiensis (improvement compared to DmAMP1)” value (Mycosphaerella fijiensis) is reported as “+ (key: + indicating 1- to 5-fold improvement compared to DmAMP1; ++ indicating >5- to 10-fold improvement; +++ indicating >10-fold improvement)”.
